Holding throughout (assay): relative viability (nuclei count vs DMSO), 5 days (fraction); higher = more cells survive
Compound in test [1]: C1=CC(=CC=C1NC(=S)NNC2=C(C=C(C=C2[N+](=O)[O-])C(F)(F)F)[N+](=O)[O-])F [Kobe2602] + NC(=O)Nc1cc(-c2cccc(F)c2)sc1C(=O)N[C@H]1CCCNC1 [AZD7762] (partner 0.2 µM)
The essentials:
(§1)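 Nuclei were stained with Hoechst during a one-step fixation (final 0.05% Triton X-100, 1% formaldehyde, 1 ug/ml Hoechst) carried out 5 days after dosing, then counted on 4× images. The cells, lung cancer lines in 1536-well plates, had been dosed by pin tool the day after seeding with one drug alone or a fixed anchor-drug dose plus five library-drug doses (not always all listed) in √10 steps. Relative viability is the nuclei count in treated wells divided by that in vehicle wells, and each value is the median of duplicate plates.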

Compound in test [2]: O[C@@H](COc1cccc2ncccc12)CN1CCN([C@@H]2c3ccccc3[C@@H]3[C@H](c4ccccc42)C3(F)F)CC1 [Zosuquidar] + O=C(c1cc(Cc2n[nH]c(=O)c3ccccc23)ccc1F)N1CCN(C(=O)C2CC2)CC1 [Olaparib] (partner 8 µM)
Summed up:
as §1

Compound in test [3]: O[C@@H](COc1cccc2ncccc12)CN1CCN([C@@H]2c3ccccc3[C@@H]3[C@H](c4ccccc42)C3(F)F)CC1 [Zosuquidar] + CC(=O)Nc1cccc(-n2c(=O)n(C3CC3)c(=O)c3c(Nc4ccc(I)cc4F)n(C)c(=O)c(C)c32)c1 [Trametinib] (partner 0.02 µM)
Summed up: as §1

Compound in test [4]: C1=CC(=CC=C1NC(=S)NNC2=C(C=C(C=C2[N+](=O)[O-])C(F)(F)F)[N+](=O)[O-])F [Kobe2602] + CS(=O)(=O)CCNCc1ccc(-c2ccc3ncnc(Nc4ccc(OCc5cccc(F)c5)c(Cl)c4)c3c2)o1 [Lapatinib] (partner 2 µM)
The essentials: as §1

For NCI-H2170, the relative viability in test [1] (first compound 0.2 µM) worked out at 0.9; in test [1] (first compound 0.6325 µM), 0.875; in test [1] (first compound 2 µM) it was 0.869; in test [1] (first compound 6.325 µM) it was 0.823; in test [1] (first compound 20 µM), 0.886; in test [2] (first compound 0.01 µM), 0.546. Also, the relative viability is 0.629 in test [2] (first compound 0.03162 µM); 0.612 in test [2] (first compound 0.1 µM); 0.63 in test [2] (first compound 0.3162 µM); 0.562 in test [2] (first compound 1 µM); 0.85 in test [3] (first compound 0.01 µM); 0.929 in test [3] (first compound 0.03162 µM). Besides, the relative viability in test [3] (first compound 0.1 µM) came to 0.868; in test [3] (first compound 0.3162 µM), 0.952; in test [3] (first compound 1 µM), 0.869; in test [4] (first compound 0.2 µM), 0.282; in test [4] (first compound 0.6325 µM), 0.261; in test [4] (first compound 2 µM) it was 0.262. Further, the relative viability in test [4] (first compound 6.325 µM) amounted to 0.272; in test [4] (first compound 20 µM) it was 0.303.
NCI-H2347: the relative viability worked out at 0.85 in test [1] (first compound 0.2 µM); 0.77 in test [1] (first compound 0.6325 µM); 0.798 in test [1] (first compound 2 µM); 0.713 in test [1] (first compound 6.325 µM); 0.806 in test [1] (first compound 20 µM); 0.589 in test [2] (first compound 0.01 µM). For the same cell line, the relative viability in test [2] (first compound 0.03162 µM) was determined as 0.545; in test [2] (first compound 0.1 µM), 0.579; in test [2] (first compound 0.3162 µM), 0.603; in test [2] (first compound 1 µM), 0.475; in test [3] (first compound 0.01 µM), 0.268; in test [3] (first compound 0.03162 µM), 0.268. The relative viability in test [3] (first compound 0.1 µM) is 0.276; in test [3] (first compound 0.3162 µM), 0.311; in test [3] (first compound 1 µM), 0.297; in test [4] (first compound 0.2 µM) it was 0.939; in test [4] (first compound 0.6325 µM) it was 0.963; in test [4] (first compound 2 µM), 0.913. Further, the results for the relative viability in test [4] (first compound 6.325 µM) and in test [4] (first compound 20 µM) were 0.988 and 0.909, respectively.
As to NCI-H2405, the relative viability in test [1] (first compound 0.2 µM) turned out to be 0.767; in test [1] (first compound 0.6325 µM), 0.912; in test [1] (first compound 2 µM), 0.664; in test [1] (first compound 6.325 µM), 0.798; in test [1] (first compound 20 µM) it was 0.857; in test [2] (first compound 0.01 µM) it was 0.903. The relative viability came to 0.758 in test [2] (first compound 0.03162 µM); 0.756 in test [2] (first compound 0.1 µM); 0.95 in test [2] (first compound 0.3162 µM); 0.829 in test [2] (first compound 1 µM); 0.64 in test [3] (first compound 0.01 µM); 0.621 in test [3] (first compound 0.03162 µM). Besides, the relative viability in test [3] (first compound 0.1 µM) was 0.617; in test [3] (first compound 0.3162 µM) it was 0.754; in test [3] (first compound 1 µM) it was 0.617; in test [4] (first compound 0.2 µM) it was 1.05; in test [4] (first compound 0.6325 µM) it was 1.17; in test [4] (first compound 2 µM), 1.01. Besides, the values for the relative viability in test [4] (first compound 6.325 µM) and in test [4] (first compound 20 µM) were 1.2 and 1.33, respectively.
For the cell line NCI-H3122, the relative viability in test [1] (first compound 0.2 µM) was 0.984; in test [1] (first compound 0.6325 µM) it was 0.963; in test [1] (first compound 2 µM) it was 0.935; in test [1] (first compound 6.325 µM), 1.09; in test [1] (first compound 20 µM), 1.04; in test [2] (first compound 0.01 µM), 0.606. Further, the relative viability worked out at 0.608 in test [2] (first compound 0.03162 µM); 0.565 in test [2] (first compound 0.1 µM); 0.621 in test [2] (first compound 0.3162 µM); 0.637 in test [2] (first compound 1 µM); 0.232 in test [3] (first compound 0.01 µM); 0.258 in test [3] (first compound 0.03162 µM). The relative viability in test [3] (first compound 0.1 µM) was determined as 0.238; in test [3] (first compound 0.3162 µM) it was 0.222; in test [3] (first compound 1 µM), 0.211; in test [4] (first compound 0.2 µM), 1.04; in test [4] (first compound 0.6325 µM) it was 0.981; in test [4] (first compound 2 µM), 1. The figures for the relative viability in test [4] (first compound 6.325 µM) and in test [4] (first compound 20 µM) were 1.03 and 1.06, respectively.
Consider PC-3 [JPC-3], for which the relative viability was determined as 0.872 in test [1] (first compound 0.2 µM); 0.913 in test [1] (first compound 0.6325 µM); 0.603 in test [1] (first compound 2 µM); 0.823 in test [1] (first compound 6.325 µM); 0.835 in test [1] (first compound 20 µM); 1.09 in test [2] (first compound 0.01 µM). Further, the relative viability in test [2] (first compound 0.03162 µM) is 1.18; in test [2] (first compound 0.1 µM), 0.873; in test [2] (first compound 0.3162 µM), 1.09; in test [2] (first compound 1 µM), 1.1; in test [3] (first compound 0.01 µM), 0.78; in test [3] (first compound 0.03162 µM), 0.628. Besides, the relative viability in test [3] (first compound 0.1 µM) came to 0.667; in test [3] (first compound 0.3162 µM) it was 0.692; in test [3] (first compound 1 µM) it was 0.699; in test [4] (first compound 0.2 µM), 0.488; in test [4] (first compound 0.6325 µM) it was 0.457; in test [4] (first compound 2 µM) it was 0.434. Further, the figures for the relative viability in test [4] (first compound 6.325 µM) and in test [4] (first compound 20 µM) were 0.477 and 0.495, respectively.
PC-14: the relative viability was 0.39 in test [1] (first compound 0.2 µM); 0.445 in test [1] (first compound 0.6325 µM); 0.348 in test [1] (first compound 2 µM); 0.351 in test [1] (first compound 6.325 µM); 0.308 in test [1] (first compound 20 µM); 0.26 in test [2] (first compound 0.01 µM). Also, the relative viability in test [2] (first compound 0.03162 µM) came to 0.319; in test [2] (first compound 0.1 µM) it was 0.205; in test [2] (first compound 0.3162 µM), 0.307; in test [2] (first compound 1 µM) it was 0.179; in test [3] (first compound 0.01 µM), 0.826; in test [3] (first compound 0.03162 µM) it was 0.753. Also, the relative viability came to 0.862 in test [3] (first compound 0.1 µM); 0.83 in test [3] (first compound 0.3162 µM); 0.706 in test [3] (first compound 1 µM); 0.31 in test [4] (first compound 0.2 µM); 0.426 in test [4] (first compound 0.6325 µM); 0.294 in test [4] (first compound 2 µM). The relative viability in test [4] (first compound 6.325 µM) worked out at 0.333; in test [4] (first compound 20 µM), 0.306.
For the cell line RERF-LC-KJ, the relative viability in test [1] (first compound 0.2 µM) was 0.883; in test [1] (first compound 0.6325 µM) it was 0.973; in test [1] (first compound 2 µM) it was 1.02; in test [1] (first compound 6.325 µM), 0.881; in test [1] (first compound 20 µM), 0.894; in test [2] (first compound 0.01 µM), 0.802. Further, the relative viability is 0.985 in test [2] (first compound 0.03162 µM); 0.878 in test [2] (first compound 0.1 µM); 1.01 in test [2] (first compound 0.3162 µM); 0.855 in test [2] (first compound 1 µM); 0.837 in test [3] (first compound 0.01 µM); 0.897 in test [3] (first compound 0.03162 µM). The relative viability in test [3] (first compound 0.1 µM) was 0.944; in test [3] (first compound 0.3162 µM) it was 0.857; in test [3] (first compound 1 µM), 0.919; in test [4] (first compound 0.2 µM) it was 0.851; in test [4] (first compound 0.6325 µM), 0.842; in test [4] (first compound 2 µM), 0.809. Besides, the relative viability in test [4] (first compound 6.325 µM) is 0.697; in test [4] (first compound 20 µM), 0.831.

Source of the values: the supplement of paper PMC10307832.
